The subject of assay [1] is complement activity of sera. The assay can be described thus: Guinea Pig Intraperitoneal Test (GPIP). To be noted: Cavia porcellus, ip, 200 mg./kg. i.p., read-out: In Vivo Activity (Guinea Pig) Intraperitoneal % Inhibition. How it is done:
An active inhibitor protects C2 from C1 and C4; (ii) Cap 50 Test--Here, appropriate amounts of the test compound are added to a pool of guinea pig serum in vitro, after which the undiluted serum capillary tube assay referred to above is run. The concentration of compound inhibiting 50% is reported; and (iii) Guinea Pig Intraperitoneal Test (GPIP)--Guinea pigs weighing about 300 g. are dosed intraperitoneally (i.p.) with 200 mg./kg. of the test compound dissolved in saline and adjusted to pH 7-8. Approximately 0.4 ml. blood samples, […], are collected directly into centrifuge tubes; 5 ml. blood samples, […] beakers. The samples are allowed to clot, centrifuged, and the resultant sera are assayed for complement activity using the capillary complement assay. Percent inhibition are calculated by comparison with simultaneous controls.

Another assay deals with T1, activated human C1 (Homo sapiens, UniProt P09871).
T1 sequence (P09871 438-688 limits assumed): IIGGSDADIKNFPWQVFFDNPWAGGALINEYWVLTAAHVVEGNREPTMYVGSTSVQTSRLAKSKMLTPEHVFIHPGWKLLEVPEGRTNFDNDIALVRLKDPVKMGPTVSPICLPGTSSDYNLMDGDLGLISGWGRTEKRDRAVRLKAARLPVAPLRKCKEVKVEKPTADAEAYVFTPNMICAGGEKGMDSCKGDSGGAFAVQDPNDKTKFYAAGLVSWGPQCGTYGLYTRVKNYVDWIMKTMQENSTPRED
T1 sequence (P09871 16-437 limits assumed): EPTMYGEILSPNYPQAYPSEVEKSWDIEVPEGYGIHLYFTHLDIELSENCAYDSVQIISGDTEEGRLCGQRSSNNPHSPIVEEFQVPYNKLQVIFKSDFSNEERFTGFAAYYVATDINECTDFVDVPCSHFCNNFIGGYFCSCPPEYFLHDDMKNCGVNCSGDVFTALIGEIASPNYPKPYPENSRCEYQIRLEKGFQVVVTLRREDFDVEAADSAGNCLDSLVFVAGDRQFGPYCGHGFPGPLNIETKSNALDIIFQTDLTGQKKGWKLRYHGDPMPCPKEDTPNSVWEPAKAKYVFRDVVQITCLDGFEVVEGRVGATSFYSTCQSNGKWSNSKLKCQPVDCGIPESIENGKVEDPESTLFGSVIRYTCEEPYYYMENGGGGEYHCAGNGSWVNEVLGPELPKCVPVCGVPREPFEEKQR
The assay can be described thus: Test Code 026 (C1 inhibitor). In kind it is biochemical. Conditions: twofold serial dilutions; higher well number indicates higher activity. How it is done: An active inhibitor protects C2 from C1 and C4; (ii) Cap 50 Test--Here, appropriate amounts of the test compound are added to a pool of guinea pig serum in vitro, after which the undiluted serum capillary tube assay referred to above is run. The concentration of compound inhibiting 50% is reported; and (iii) Guinea Pig Intraperitoneal Test (GPIP)--Guinea pigs weighing about 300 g. are dosed intraperitoneally (i.p.) with 200 mg./kg. of the test compound dissolved in saline and adjusted to pH 7-8. Approximately 0.4 ml. blood samples, taken by orbital sinus puncture 30 minutes and one hour after injections, are collected directly into centrifuge tubes; 5 ml. blood samples, taken by decapitation 2 hours after injection are collected directly into beakers. The samples are allowed to clot, centrifuged, and the resultant sera are assayed for complement activity using the capillary complement assay. Percent inhibition are calculated by comparison with simultaneous controls.

Where “and” joins values, the source holds several entries; their conditions need not be identical. Equal entries are not always repeated. Structures can show the parent of a compound that is named as a salt. Where two headings read alike, the source gives them in different places.

One may read the inhibition as the share of the control response that was lost under treatment.

As to `CCOC(=O)COc1cc(OS(=O)(=O)O)c2c(=O)c(O[C@@H]3O[C@H](CO[C@@H]4O[C@@H](C)[C@H](OS(=O)(=O)O)[C@@H](OS(=O)(=O)O)[C@H]4OS(=O)(=O)O)[C@@H](OS(=O)(=O)O)[C@H](OS(=O)(=O)O)[C@H]3OS(=O)(=O)O)c(-c3ccc(OS(=O)(=O)O)c(OS(=O)(=O)O)c3)oc2c1` [7-O-Carbethoxymethyl-rutin nona(H-sulfate)sodium salt], the results for the inhibition at 200 mg/kg in assay [1] (Time 2 hours), in assay [1] (Time 6 hours) and in assay [1] (Time 24 hours) were 39%, 43% and 55%, respectively. For the same molecule, the “In vitro Activity 026 (activity in wells, serial dilution assay)” value at activated human C1 was 12 wells and 10 wells.

The record behind these values is patent publication US4342752A, “Carbalkoxymethyl derivatives of rutin poly(H-)sulfate and method of use” (American Cyanamid Company, priority 1981, dated 1982).
